Experimental data as given in US8212058B2, “Fluorescent photoprobe for the imaging of endothelin receptors” (Universitatskilinikum Munster, priority 2005, dated 2012).
Entries after “also recorded” stand apart in the source; their conditions may differ.

Legend:
endothelin receptors [1] = experiment: Competition binding studies with [125I]ET-1 on mouse ventricular membrane preparations; conditions: read-out: dissociation constant KD; Scatchard transformation of saturation data, mouse ventricular membranes
Method: Microsomes were prepared by homogenizing ventricles from DBA mice at 4° C. for 90 seconds in 1 ml of buffer A (10 mM EDTA, 10 mM HEPES, 0.1 mM benzamidine, pH 7.4), using a Polytron PT 3000 (Kinematica, Luceme, Switzerland). Homogenates were centrifuged at 45,000× gmax for 15 min at 4° C. The pellets were resuspended in 1 ml of buffer B (1 mM EDTA, 10 mM HEPES, 0.1 mM benzamidine, pH 7.4) and recentrifuged at 45,000× gmax for 15 min at 4° C. The pellets were resuspended in 1 ml of buffer B and centrifuged at 10,000× gmax for 10 min at 4° C. The supernatants were recentrifuged at 45,000×gmax for 15 min at 4° C. […]
For competition binding studies, the prepared membranes were resuspended in buffer D (10 mM Tris.HCl, 154 mM NaCl, 0.1 mM ascorbic acid, pH 7.4) at 0° C. […] The membrane bound radioactivity was determined in a γ-scintillation counter. Competition binding curves were analyzed by nonlinear regression analysis using the XMGRACE programme (Linux software).
Different concentrations of the prepared compound (1.0 pM-100 μM) were incubated with 40 pM [^125I]ET-1 and a fixed amount of mouse ventricular membrane preparation (10 μg) at 37° C. for 4 h. The membrane bound radioactivity was evaluated using a γ-scintillation counter and standardized on percentage of [^125I]ET-1. […]

[2] = target: T1, ETA receptor on HT-1080 human fibrosarcoma cells (Homo sapiens, UniProt P25101); experiment: In vitro cell binding assay by fluorescence microscopy, HT-1080 cells; type: cell-based; conditions: for cellular fluorescence signal (fluorescence microscopy): HT-1080 cells, 45 min at 4° C.
T1 construct: The highest amount of protein is found in human fibrosarcoma cells HT-1080; host or cells: HT-1080
T1 sequence (P25101 21-427): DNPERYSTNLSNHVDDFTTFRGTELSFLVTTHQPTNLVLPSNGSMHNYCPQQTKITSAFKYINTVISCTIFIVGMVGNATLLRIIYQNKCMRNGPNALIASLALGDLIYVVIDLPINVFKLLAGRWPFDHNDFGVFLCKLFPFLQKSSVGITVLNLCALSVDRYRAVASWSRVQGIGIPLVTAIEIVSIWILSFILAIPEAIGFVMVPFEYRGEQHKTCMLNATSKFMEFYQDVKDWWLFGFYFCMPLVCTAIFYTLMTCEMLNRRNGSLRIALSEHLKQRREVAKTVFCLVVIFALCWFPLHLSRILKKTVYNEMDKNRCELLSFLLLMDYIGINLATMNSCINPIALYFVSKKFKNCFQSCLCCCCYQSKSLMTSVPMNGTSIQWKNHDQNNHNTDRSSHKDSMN
Method: Cell lines and reagents. Human breast adenocarcinoma cell line MCF-7 (ATCC-No. HTB-22), MDA-MB-435 human breast carcinoma cells (ATCC-No. HTB-123) and HT-1080 human fibrosarcoma cells (ATCC-No. CCL-121) were cultured in RPMI 1640 (Invitrogen Corporation, San Diego, USA) supplemented with 10% fetal calf serum, penicillin and streptomycin. Cells were grown routinely in a monolayer culture at 37° C. in a 5% CO2 humidified air atmosphere.
(§1) Cell binding assays. Cells (HT-1080 fibrosarcomas, MDA-MB435 ductal carcinomas, MCF-7 adenocarcinomas) were seeded in 4-well plates (Nunc GmbH & Co. KG, Wiesbaden, Germany) and incubated in culture medium (0.5 ml/well) overnight. For binding studies cells were washed twice with PBS and resuspended in 150 μl binding buffer (20 mM HEPES in PBS with Ca^2+/Mg^2+, 0.2% BSA, 0.1% Glucose, pH 7.4). […] After an incubation period of 45 min at 4° C. cells were washed twice with PBS and were resuspended in binding buffer. […] Cells could be directly visualised by fluorescence microscopy (40× objective, Nikon TE 2000-S, Nikon-Düsseldorf, Germany). The microscope was equipped with a mercury vapour lamp (100 W), 620/775 nm and 545/675 nm (excitation/emission) filters (AHF Analysentechnik, Tbingen, Germany), a Nikon DXM1200F camera and ACT1/DXM1200F software (Nikon, Japan).
(§2) In vitro cell binding assays. […] Binding of the labelled antagonist could be directly analysed by fluorescence microscopy.

[3] = test system: ETA-negative MDA-MB-435 human breast carcinoma cells; experiment: In vitro cell binding assay by fluorescence microscopy, MDA-MB-435 cells; type: cell-based; conditions: 45 min at 4° C.
Text: In vitro cell binding assays.

[4] = target: T2, ETAR in MDA-MB-435 tumor xenografts (Mus musculus, UniProt Q61614); experiment: In vivo FMT/FRI imaging of MDA-MB-435 murine xenograft models; parameters: species or system mice
T2 construct: from tissue; host or cells: MDA-MB-435 tumour xenografts in mice (host-derived cells, e.g. endothelial)
T2 sequence (Q61614 21-427): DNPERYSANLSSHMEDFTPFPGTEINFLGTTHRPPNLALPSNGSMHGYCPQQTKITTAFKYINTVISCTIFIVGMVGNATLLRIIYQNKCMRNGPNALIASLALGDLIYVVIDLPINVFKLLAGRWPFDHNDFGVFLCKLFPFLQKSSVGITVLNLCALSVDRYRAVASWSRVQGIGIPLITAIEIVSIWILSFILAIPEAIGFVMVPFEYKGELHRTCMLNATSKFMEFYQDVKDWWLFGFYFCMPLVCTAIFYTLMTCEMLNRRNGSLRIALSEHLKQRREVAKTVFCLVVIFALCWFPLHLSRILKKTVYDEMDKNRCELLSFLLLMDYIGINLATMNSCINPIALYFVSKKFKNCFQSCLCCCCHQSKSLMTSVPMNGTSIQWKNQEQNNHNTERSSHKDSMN
Text: FIG. 7: 3D-FMTexamination of MDA-MB-435 murine xenograft models.

[5] = test system: ETAR in MCF-7 tumor xenografts; experiment: In vivo FMT/FRI imaging of MCF-7 tumor xenografts; parameters: species or system mice
[6] = test system: ETA receptor on MCF-7 human breast adenocarcinoma cells; experiment: In vitro cell binding assay by fluorescence microscopy, MCF-7 cells; conditions: for cellular fluorescence signal (fluorescence microscopy): 45 min at 4° C., nmol amounts per well
Method: Human breast cancer cell line MCF-7 (ATCC-No. HTB-22) was cultured in RPMI 1640 (Invitrogen Corporation, San Diego, USA) supplemented with 10% fetal calf serum, penicillin and streptomycin. Cells were grown routinely in a monolayer culture at 37° C. in a 5% CO2 humidified air atmosphere. Antibodies were murine IgGs and specific for the endothelin A receptor.
Cells were seeded in 4-well plates (Nunc, Wiesbaden) and incubated in culture medium (0.5 ml/well) overnight. For binding studies cells were washed twice with PBS and resuspended in 150 μl binding-buffer (20 mM HEPES in PBS with Ca^2+/Mg^2+, 0.2% BSA, 0.1% Glucose, pH 7.4). […] After an incubation period of 45 min at 4° C. cells were washed twice with PBS and were resuspended in binding buffer. For competition binding studies free ETAR antagonist (final amount 50 nmol) or ETAR antibodies (1.3 μg) were added to each well for 45 min at 4° C. Cells could be directly visualized by fluorescence microscopy (40× and 60× objective, Nikon TE 2000-S, Nikon-Düsseldorf). The microscope was equipped with a mercury vapour lamp (100 W), 620/775 nm and 545/675 nm (excitation/emission) filters (AHF Analysentechnik, Tübingen), a Nikon DXM1200F camera and ACT1/DXM1200F software (Nikon, Japan).
Binding of the labelled antagonist could be directly analyzed by fluorescence microscopy.
as §1, §2

myocardial ETAR = target: T3, myocardial ETAR (Mus musculus, UniProt Q61614); experiment: In vivo FRI imaging of myocardial ETAR expression; conditions: mice, pre-dosing with PD 156707
T3 construct: from tissue; host or cells: mouse myocardium, in vivo
T3 sequence (Q61614 21-427): T2 sequence (Q61614 21-427)
Method: FIG. 6: In vivo application of the targeted fluorophore for imaging of myocardial ETAR—expression. Mice were injected with the targeted fluorophore with (middle) and without (right) pre-dosing with PD 156707. The left speciment is a saline injected control.

endothelin receptors [7] = conditions: literature value printed for comparison (lit.; ref. 37); cited from earlier work
[8] = MDA-MB-435, block (100 nmol PD 156707 10 minutes before), 1 h
[9] = MDA-MB-435, block (100 nmol PD 156707 10 minutes before), 3 h
[10] = MDA-MB-435, block (100 nmol PD 156707 10 minutes before), 5 h
[11] = MDA-MB-435, block (100 nmol PD 156707 10 minutes before), 24 h
[12] = MDA-MB-435, nativ, 24 h, 2 nmol

“[^125I]ET-1: radioiodinated endothelin-1 radioligand (PerkinElmer)” showed a Kd (endothelin receptors [1]) of 0.208 ± 0.002 nM.

For `CC[N+]1=C(/C=C/C=C/C=C2/N(CCCCCC(=O)NCCOCCOCCOCCOc3cc(CC4=C(c5ccc6c(c5)OCO6)C(=O)OC4(O)c4ccc(OC)cc4)cc(OC)c3OC)c3ccc4c(S(=O)(=O)O)cc(S(=O)(=O)O)cc4c3C2(C)C)C(C)(C)c2c1ccc1c(S(=O)(=O)O)cc(S(=O)(=O)O)cc21` (stereo not drawn) [ETAR-Cy 5.5], the “cellular fluorescence signal (fluorescence microscopy)” value (shortened to “cellular fluorescence signal”) ([2]; listed as 17) was “higher fluorescence signal than human breast cancer cell line MCF-7; also recorded: highest cellular fluorescence”, the “cellular fluorescence signal” value [3] was “little to no cellular fluorescence” and the “cellular fluorescence signal” value ([3]; listed as 17) was “no accumulation of the ligand; also recorded: do not bind the tracer”. For the same compound, the “fluorescence signal of tumor xenografts by FRI and FMT” value ([4]; MDA-MB 435 xenografts, 2 nmol i.v.) was “high fluorescence signal yields”, the “mean (FMT-data)” value [4, 8] was 253.57 and the “pmol (FMT-data)” value [4, 8] was 22.14 pmol. The “mean (FMT-data)” value [4, 9] was 323.25, the “pmol (FMT-data)” value [4, 9] was 17.25 pmol and the “mean (FMT-data)” value [4, 10] was 343.78. The “pmol (FMT-data)” value [4, 10] was 19.67 pmol, the “mean (FMT-data)” value [4, 11] was 273.80 and the “pmol (FMT-data)” value [4, 11] was 34.80 pmol. The “mean (FMT-data)” value ([4]; MDA-MB-435, nativ, 1 h, 2 nmol) was 356.89, the “pmol (FMT-data)” value ([4]; MDA-MB-435, nativ, 1 h, 2 nmol) was 40.56 pmol and the “mean (FMT-data)” value ([4]; MDA-MB-435, nativ, 3 h, 2 nmol) was 326.33. The “pmol (FMT-data)” value ([4]; MDA-MB-435, nativ, 3 h, 2 nmol) was 27.67 pmol, the “mean (FMT-data)” value ([4]; MDA-MB-435, nativ, 5 h, 2 nmol) was 418.17 and the “pmol (FMT-data)” value ([4]; MDA-MB-435, nativ, 5 h, 2 nmol) was 55.50 pmol. For the same compound, the “mean (FMT-data)” value [4, 12] was 444.38, the “pmol (FMT-data)” value [4, 12] was 63.57 pmol and the “mean (FMT-data)” value ([5]; MCF-7, block, 1 h) was 196.50. For the same compound, the “pmol (FMT-data)” value ([5]; MCF-7, block, 1 h) was 224.00 pmol, the “mean (FMT-data)” value ([5]; MCF-7, block, 3 h) was 66.50 and the “pmol (FMT-data)” value ([5]; MCF-7, block, 3 h) was 274.50 pmol. For the same compound, the “mean (FMT-data)” value ([5]; MCF-7, block, 5 h) was 100.67, the “pmol (FMT-data)” value ([5]; MCF-7, block, 5 h) was 201.67 pmol and the “mean (FMT-data)” value ([5]; MCF-7, block, 24 h) was 125.50. For the same compound, the “pmol (FMT-data)” value ([5]; MCF-7, block, 24 h) was 9.00 pmol, the “mean (FMT-data)” value ([5]; MCF-7, nativ, 1 h) was 148.00 and the “pmol (FMT-data)” value ([5]; MCF-7, nativ, 1 h) was 599.00 pmol. The “mean (FMT-data)” value ([5]; MCF-7, nativ, 3 h) was 79.00, the “pmol (FMT-data)” value ([5]; MCF-7, nativ, 3 h) was 339.00 pmol and the “mean (FMT-data)” value ([5]; MCF-7, nativ, 5 h) was 115.50. For the same compound, the “pmol (FMT-data)” value ([5]; MCF-7, nativ, 5 h) was 473.00 pmol, the “mean (FMT-data)” value ([5]; MCF-7, nativ, 24 h) was 207.67 and the “pmol (FMT-data)” value ([5]; MCF-7, nativ, 24 h) was 33.00 pmol. For the same compound, the “fluorescence signal of tumor xenografts by FRI and FMT” value ([5]; MCF-7 xenografts, 2 nmol i.v.) was “high fluorescence signal yields”, the “cellular fluorescence signal” value [6] was “high amounts of cellular fluorescence” and the “cellular fluorescence signal” value ([6]; listed as 9) was “specific visualization of the ETA receptor”. The “cellular fluorescence signal” value ([6]; listed as 17) was “allowed for visualisation of the ETA receptor; also recorded: only moderate cellular fluorescence” and the “cellular fluorescence signal” value ([6]; listed as targeted fluorochrome) was “strong fluorescence signal”.

For Cy 5.5 [reference compound], the “cellular fluorescence signal” value [2] was “Negligible signals”, the “cellular fluorescence signal” value [3] was “Negligible signals” and the “cellular fluorescence signal” value [6] was “Negligible signals”.

With `COc1ccc(C2(O)OC(=O)C(c3ccc4c(c3)OCO4)=C2Cc2cc(OC)c(OC)c(OC)c2)cc1` (stereo not drawn) [PD 156707, 3-benzo[1,3]dioxol-5-yl-5-hydroxy-5-(4-methoxyphenyl)-4-(3,4,5-trimethoxybenzyl)-5H-furan-2-one, reference compound] the “blocking of the binding/signal of conjugate 17” value ([2]; HT-1080 cells (FIG. 4B), antibody 1.3 μg or tenfold excess PD 156707) was “Blocking of the signal was possible”, the “tumor fluorescence of ETAR-Cy 5.5 after predosing” value ([4]; predosing with unmodified ETAR antagonist) was “significant decrease of tumor fluorescence” and the “myocardial signal of the fluorophore after pre-dosing” value (myocardial ETAR) was “significantly reduced”. The IC50 (endothelin receptors [7]) was 0.3 nM, the “blocking of the binding/signal of the Cy 5.5 conjugate” value ([6]; PD 156707 50 nmol (tenfold) or ETAR antibodies 1.3 μg) was “could be blocked; also recorded: Blocking of the signal was possible” and the “cell behaviour at higher concentrations” value ([6]; conjugate and unlabelled antagonist up to 100 nmol) was “cells detached from the bottom of the flask”.
